According to ChEMBL document CHEMBL3352342, “Nucleotide-binding oligomerization domain (NOD) inhibitors: a rational approach toward inhibition of NOD signaling pathway” (J Med Chem, 2014):

Tests used:
[1] = molecular target: Nucleotide-binding oligomerization domain-containing protein 2 (Homo sapiens, UniProt Q9HC29); assay: Inhibition of NOD2 (unknown origin) expressed in HEK293T cells coexpressing NF-kappaB driven luciferase reporter gene by HTS primary assay; format: cell-based, HEK-293T
[2] = molecular target: T1, Nucleotide-binding oligomerization domain-containing protein 1 (Homo sapiens, UniProt Q9Y239); assay: Inhibition of NOD1 (unknown origin) expressed in HEK293T cells coexpressing NF-kappaB driven luciferase reporter gene by HTS primary assay; format: cell-based, HEK-293T
T1 sequence (Q9Y239 whole entry): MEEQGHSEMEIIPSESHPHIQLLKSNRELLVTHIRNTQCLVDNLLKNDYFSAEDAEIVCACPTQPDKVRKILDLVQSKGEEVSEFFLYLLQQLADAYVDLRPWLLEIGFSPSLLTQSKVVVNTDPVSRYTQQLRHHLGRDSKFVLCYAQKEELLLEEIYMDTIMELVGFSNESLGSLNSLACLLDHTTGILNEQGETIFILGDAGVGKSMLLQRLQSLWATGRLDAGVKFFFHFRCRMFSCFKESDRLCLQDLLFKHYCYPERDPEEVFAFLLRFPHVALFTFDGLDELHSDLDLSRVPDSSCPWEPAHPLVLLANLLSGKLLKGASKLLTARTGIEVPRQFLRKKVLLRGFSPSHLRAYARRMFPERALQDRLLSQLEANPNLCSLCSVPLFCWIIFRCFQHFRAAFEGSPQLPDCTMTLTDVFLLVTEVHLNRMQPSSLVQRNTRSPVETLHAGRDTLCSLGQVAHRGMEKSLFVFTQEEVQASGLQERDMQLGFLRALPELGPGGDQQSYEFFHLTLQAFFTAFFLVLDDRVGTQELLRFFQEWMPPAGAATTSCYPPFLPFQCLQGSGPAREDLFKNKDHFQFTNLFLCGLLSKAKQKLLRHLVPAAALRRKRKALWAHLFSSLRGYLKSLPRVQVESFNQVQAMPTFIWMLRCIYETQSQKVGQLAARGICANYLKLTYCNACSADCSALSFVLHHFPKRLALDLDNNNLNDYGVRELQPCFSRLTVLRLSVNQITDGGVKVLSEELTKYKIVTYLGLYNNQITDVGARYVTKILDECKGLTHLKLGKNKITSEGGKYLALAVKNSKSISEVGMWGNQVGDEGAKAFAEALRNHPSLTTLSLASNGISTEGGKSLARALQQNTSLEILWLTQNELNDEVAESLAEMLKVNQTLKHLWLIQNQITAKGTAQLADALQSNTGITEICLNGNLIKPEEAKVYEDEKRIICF

Chain of Nucleotide-binding oligomerization domain-containing protein 2 (Q9HC29 whole entry, the tested form may be a part): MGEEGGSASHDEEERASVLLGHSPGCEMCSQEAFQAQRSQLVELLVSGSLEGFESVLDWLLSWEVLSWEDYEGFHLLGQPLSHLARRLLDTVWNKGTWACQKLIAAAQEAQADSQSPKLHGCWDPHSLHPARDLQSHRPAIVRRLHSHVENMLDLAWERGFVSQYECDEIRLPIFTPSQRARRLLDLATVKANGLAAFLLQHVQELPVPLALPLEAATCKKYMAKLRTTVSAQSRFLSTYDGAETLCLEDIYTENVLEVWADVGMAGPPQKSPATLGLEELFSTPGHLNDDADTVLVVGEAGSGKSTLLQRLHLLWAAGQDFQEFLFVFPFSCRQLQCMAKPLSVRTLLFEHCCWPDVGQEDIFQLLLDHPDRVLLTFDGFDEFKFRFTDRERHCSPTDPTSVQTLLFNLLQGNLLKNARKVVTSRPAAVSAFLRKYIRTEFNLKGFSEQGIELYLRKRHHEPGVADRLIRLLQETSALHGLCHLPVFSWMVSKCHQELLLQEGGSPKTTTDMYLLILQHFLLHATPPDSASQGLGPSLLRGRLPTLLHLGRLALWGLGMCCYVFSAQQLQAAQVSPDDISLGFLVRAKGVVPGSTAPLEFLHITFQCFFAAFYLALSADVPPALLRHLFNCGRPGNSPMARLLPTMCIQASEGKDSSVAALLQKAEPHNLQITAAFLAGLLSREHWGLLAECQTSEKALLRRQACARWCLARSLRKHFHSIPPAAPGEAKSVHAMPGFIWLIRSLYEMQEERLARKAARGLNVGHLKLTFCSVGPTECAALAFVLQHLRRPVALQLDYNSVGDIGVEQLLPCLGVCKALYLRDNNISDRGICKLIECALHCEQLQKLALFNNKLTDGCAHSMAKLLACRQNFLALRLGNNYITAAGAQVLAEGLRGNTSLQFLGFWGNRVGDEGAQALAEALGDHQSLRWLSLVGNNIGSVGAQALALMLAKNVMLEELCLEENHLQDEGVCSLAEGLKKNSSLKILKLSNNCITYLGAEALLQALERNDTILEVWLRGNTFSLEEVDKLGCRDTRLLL

Row | IC50 [1] | IC50 [2] | SMILES
1 | – | 3300 nM | O=C(Cn1c(CCNC(=O)c2ccccc2)nc2ccccc21)Nc1ccc2c(c1)CCC2
2 | – | 800 nM | CC(C)c1cccc(NC(=O)Cn2c(CCNC(=O)c3ccccc3)nc3ccccc32)c1
3 | – | 1600 nM | O=C(Cn1c(CCNC(=O)c2ccccc2)nc2ccccc21)Nc1ccc2ccccc2c1
4 | – | 400 nM | CN(CCc1nc2ccccc2n1CC(=O)Nc1ccc2c(c1)CCC2)C(=O)c1ccccc1

Second part, the compound before the results:

Row | SMILES | IC50 [1] | IC50 [2]
5 | Cc1ccc(S(=O)(=O)n2c(N)nc3ccccc32)cc1 | > 20000 nM | –
6 | C/C=C/Cn1c(SCCCc2ccccc2)nc2c1c(=O)[nH]c(=O)n2C | 12700 nM | –
7 | CCCCCn1c(SCCc2ccccc2)nc2c1c(=O)[nH]c(=O)n2C | > 20000 nM | –
8 | O=C(Cn1c(CCNC(=O)c2ccccc2)nc2cc(Cl)ccc21)Nc1ccc2c(c1)CCC2 | – | 1300 nM
9 | O=C(Cn1c(CCNC(=O)c2ccc3ccccc3c2)nc2ccccc21)Nc1ccc2c(c1)CCC2 | – | 3400 nM
10 | CN(CCc1nc2ccccc2n1CC(=O)Nc1ccc2c(c1)CCC2)C(=O)c1ccc2ccccc2c1 | – | 200 nM
